# Structures can show the parent of a compound that is named as a salt.
# Legend:
# [1] = tested on: TG3 immunoreactivity in OKA treated MSN1a cells; assay: inhibition of TG3 immunoreactivity in OKA treated MSN1a cells (ELISA); format: cell-based, human; details: for IC50: Homo sapiens, 1 μM OKA, 0-64 μM drug, 2 hrs at 37° C., TG3 antibody
# Protocol: Therefore, the therapeutic activity of the compounds of the invention was assessed by the ability of these agents to affect the production of abnormally phosphorylated epitopes pertinent to the production of PHFs of AD, utilizing a human neuroblastoma cell line (MSN1a) in the presence of the protein phosphatsse inhibitor, okadaic acid (OKA).
# This assay can thus be used to determine whether a drug is capable of preventing or intervening in AD by attenuating the production of abnormally phosphorylated paired helical filament epitopes associated with AD. To determine whether a drug is capable of preventing or intervening in AD activity, the MSN1a cells containing tau and associated proteins are treated with OKA capable of greatly increasing immnunoreactivity of the MSN1a cells with AD specific monoclonal antibodies. Then, either prior to or concomitantly with OKA treatment, a compound of the present invention is added to the culture. If the compound prevents the induction of the AD epitopes in the MSN1a cells treated with OKA, then it is said to have anti-AD activity. If the AD-specific antibodies are highly reactive with the neuroblastoma cells following OKA treatment in the presence of compound, then the compound is said to be ineffectual against AD.
# The MSN1a human neuroblastoma line was subcloned from a population of MSN cells obtained from the laboratory of Dr. Peter Davies (Albert Einstein College of Medicine, New York, N.Y.). Cells were grown and maintained in flasks in RPMI 1640 medium, supplemented with 15% fetal calf serum, 100 U/ml penicillin, 100 U/ml Streptomycin, 0.5 ug/ml fungizone under 7.5% CO2 at 37° C.
# Stock solutions of drugs were prepared by dissolving the anhydrous powders to final concentrations of either 10 or 20 mM in 50% aqueous or 100% dimethyl sulfoxide (DMSO), respectively. […]
# MSN cells grown in 225 cm^2 flasks are removed from the incubator, their medium decanted and replaced with 50 ml pre-warmed KRH. […] The supernatants are discarded and the cell pellets are resuspended, the cells counted and diluted to a density of 2×10^4 cells/50 ml. […]
# [2] = tested on: PHF epitopes in MSN1a cells (PHF-1 immunoreactivity); assay: PHF-1 immunoreactivity (western blot) in okadaic acid treated MSN1a cells; format: cell-based, human
# Protocol: FIG. 3 is a western blot showing PHF-1 immunoreactivity in lysates from control and chlorpromazine treated MSN cells treated with okadaic acid.
# These compounds are effective at micromolar concentrations, with increased potency being evident when cells are treated prior to the addition of okadaic acid. The effective concentrations appear to be in the range at which these drugs are present in the brain following chronic treatment of psychiatric patients (Svendsen, C N, Psychopharmacology, 90, 316-321, 1986).
# To determine the effect of chlorpromazine on the paired helical filament epitopes associated with AD, MSN1a cells expressing paired helical filament epitopes were incubated with […] chlorpromazine (CPZ) or a 0.2% DMSO vehicle control for 2 hours at 37° C. The cells were isolated by centrifugation, boiled for 10 minutes and […] protein from the resulting heat stable supernatants were loaded per lane on an SDS-PAGE gel. The gel was electrophoretically transferred to nitrocellulose membrane and then immunostained with PHF-1. […] The use of the MSN1a cell culture model for screening of novel compounds for therapeutic activity in AD is, therefore, quite warranted.
# [3] = tested on: PHF epitope levels in frontal (Brodman Area 10) and temporal (Brodman Area 38) brain tissue; assay: ALZ-EIA of PHF (ADAP) levels in post-mortem brain tissue of patients chronically treated with chlorpromazine; format: in vivo, human; details: chronic treatment; frontal and temporal tissue at autopsy; vs normal controls and AD (FIGS. 4A, 4B)
# Protocol: FIG. 4A is a chart showing relative ADAP concentrations in Brodman Area 10 in Alzheimer's Disease patients, normal controls and patients treated with chlorpromazine (Rx).
# FIG. 4B is a chart showing relative ADAP concentrations in Brodman Area 38 in Alzheimer's Disease patients, normal controls and patients treated with chlorpromazine (Rx).
# Frontal and cortical brain tissue specimens obtained at autopsy from patients chronically treated with chlorpromazine were analyzed using the ALZ-EIA method previously described (Ghanbari, H A, et al, JAMA, 263, 2907, 1990). The results are shown in FIGS. 4A and 4B frontal (Broadman area 10) and temporal (Broadman area 38) regions, respectively. The brain tissue (post-mortem) from approximately the same number of (age matched) normal controls and Alzheimer's Disease patients were also analyzed and are presented in these figures as negative and positive controls (for normal and AD, respectively).
# [4] = tested on: PHF-1 and TG3 epitopes in MSN1a cells; assay: generation of Alzheimer epitopes (PHF-1 and TG3) in MSN1a cells by okadaic acid; format: cell-based, human
# Protocol: Conditions were established which led to hyperphosphorylation of the proteins known to be involved in PHF formation. Using monoclonal antibodies PHF-1 and TG3 generated to human PHF preparations, the effects of a variety of manipulations of the phosphorylation state of these proteins were tested. These tests required that most of the abnormal epitopes recognized by these monoclonal antibodies in the human Alzheimer brain should be generated in the MSN1a cells. […] These epitopes are either absent or present at a very low level in untreated MSN1a cells.
# Shown in FIG. 2A are bar graphs (percent of AD) of the ELISA immunoreactivity of brain preparations (AD or normal) to either PHF-1 or TG3. Shown in FIG. 2B are bar graphs (percent of MSN+) of the ELISA immunoreactivity of MSN1a cell preparations (minus or plus okadaic acid) to either PHF-1 or TG3. The MSN1a cell preparations plus vs minus okadaic acid closely parallel the AD vs nomal brain preparations. […] The cell culture system according to the invention in which epitopes characteristic of PHF can be readily generated and subsequently recognized by the specific Alzheimer brain specific antibodies provides an assay suitable for screening compounds for their ability to block the production of these phosphorylated epitopes.
smiles,measurement,setting,value
"CN(C)CCCN1c2ccccc2Sc2ccc(Cl)cc21 [Chlorpromazine, chlorpromazine]",inhibition of the production of aberrantly phosphorylated epitopes,"[1]; MSN1a cell culture model, TG3",effective in inhibiting the production of these aberrant phosphorylated epitopes
same,production of paired helical filament epitopes by the MSN1a cells,"[2]; 100 mM chlorpromazine, 2 hours at 37° C., PHF-1 immunostain",greatly decreased the production of paired helical filament epitopes
same,inhibition of the expression of PHF epitopes,"[2]; MSN1a cells treated with okadaic acid, Alzheimer's Disease specific antibodies (cf. FIG. 3)",markedly inhibit the expression of PHF epitopes
same,PHF epitope levels in brain of chlorpromazine treated patients,[3],low PHF epitope levels similar to normal controls
"O=C(CCN1CCN(C(=O)c2cccc(F)c2F)CC1)c1ccc([N+](=O)[O-])cc1 [Example 63, 1-(p-Nitrophenyl)-3-[4'-(2"",3""-difluorobenzoyl)-1'-piperazinyl]-1-propanonedlhydrochlorde]",IC50,[1],7.3 µM
C=C1[C@@H](O)[C@@H]2O[C@]3(CC[C@H](/C=C/[C@@H](C)[C@@H]4CC(C)=C[C@@]5(O[C@H](C[C@@](C)(O)C(=O)O)CC[C@H]5O)O4)O3)CC[C@H]2O[C@@H]1[C@@H](O)C[C@H](C)[C@H]1O[C@@]2(CCCCO2)CC[C@H]1C [okadaic acid],generation of the epitopes associated with Alzheimer brain specific monoclonal antibodies,[4],found to generate the epitopes
"CSc1ccc(C(=O)CCN2CCN(Cc3ccccc3)CC2)cc1 [Example 14, 1-(p-Methylthiophenyl)-3-(4'-benzyl-1'-piperazinyl)-1-propanone dihydrochloride]",IC50,[1],5.8 µM
